Test results taken from US7820624B2, “Peptide ligands” (ICH Productions Limited, priority 2003, dated 2010).
“Also recorded” adds a separate entry of the source.

Columns and labels:
[1] = tested on: human monocyte-derived immature dendritic cells; experiment: LID (lipid-peptide-DNA) transfection of immature dendritic cells, EGFP by FACS and 7AAD cell death; assay type: cell-based; settings: for Transfection efficiency, % positive cells: day 4 cells; for Transfection efficiency (percentage cells positive for EGFP) relative to peptide 6: day 6 cells, LID vector
Procedure: (§1) Lipopolyplex (LID) transfection complexes comprising lipid (L), peptide (in the form of a peptide derivative as described above) (I) and DNA (D) were prepared. The lipid component was Lipofectin or Lipofectamine 2000 (Invitrogen Ltd, Paisley, UK), the peptide component was a synthesized peptide A to F, 6 or 6J derivative, as described in Table 7 above, and the DNA was the plasmid pEGFP-N1 (Clontech, BD Biosciences, Palo Alto, Calif.)
In the transfection complex, peptide component to DNA charge ratios (+/−) were used at 1.5:1, 3:1 and 7:1. The lipid
(§2) component (Lipofectin or Lipofectamine 2000) was maintained at a constant proportion, by weight, relative to DNA of 0.75:1. Prior to making transfection complexes, in method A the lipid component was diluted to a concentration of 15 μg per ml, the peptide was prepared at 0.1 mg/ml and the DNA (plasmid pEGFP-N1, BD Biosciences, Cowley, UK, prepared using EndoFree plasmid kit, Qiagen Ltd, Crawley, UK) was at 10 μg per ml. All dilutions were performed with OptiMEM reduced serum tissue culture medium (Life Technologies Ltd, Paisley, UK). In method B prior to making transfection complexes the lipid component was diluted to a concentration of 30 μg per ml, the peptide was prepared at 0.1 mg/ml and the DNA (plasmid pEGFP-N1, BD Biosciences, Cowley, UK, prepared using EndoFree plasmid kit, Qiagen Ltd, Crawley, UK) was at […]. All dilutions were performed in serum-free RPMI.
(§3) Transfection complexes were made by mixing the components in the order 1) lipid (50 μl) then 2) peptide (70 μl) and finally 3) DNA (50 μl), then diluting with OptiMEM or serum free RPMI, as appropriate, to a concentration relative to the DNA component of 2 μg DNA per […] (OptiMEM) or 500 μl (RPMI).
Immature day 6 dendritic cells, obtained as described in Example 1(v) above, were plated into a 48 well plate at 5×10^4 cells per well in complete media and allowed to settle for 3 hours at 37° C. 300 μl or 500 μl (as appropriate) of the transfection complex obtained as described above was added to each well. The transfection complex was applied to cells within 5 minutes of preparation. Transfection incubations were performed at 37° C. for 4 hours, after which the medium was replaced with complete medium with cytokines for 24 hours. Cells were harvested by scraping, spun down and resuspended in 300 μl PBS for FACS analysis to determine the percentage of cells positive for the reporter gene EGFP (Enhanced Green Fluorescent Protein). Each transfection was performed in triplicate wells.
(§4) For transfection of monocytes, peripheral blood monocytes were prepared using Lymphoprep centrifugation and CD14 bead selection as described in the method for preparation of monocyte derived dendritic cells in Example 1(v) above. These cells were then transfected as described as described for dendritic cells except that transfection of the monocytes (and also of day 3 or day 4 immature dendritic cells) was carried out in solution.

[2] = tested on: human monocyte-derived immature dendritic cells; experiment: Whole cell flow cytometry (FACS) of phage clone binding; settings: day 4 cells, several donors; versus phage clone with no insert
Procedure: 5×10^4 Dendritic cells and 2×10^11 of an individual purified phage clone were each blocked at 4° C. for 30 mins in 1 ml MBSA (2% Marvel, 5% BSA in PBS), with mixing on a turntable. The dendritic cells were spun down at 2000 rpm, a gentle centrifugation to pellet cells without lysing them, for 5 min at 4° C., and the pellet resuspended in the blocked phage solution. The mixture was held on ice for 30 min to allow the phage to bind, before spinning down the cells, removing the supernatant and washing the cells with 1 ml 1% BSA, 0.05% Tween20-PBS. The cells were spun again, the supernatant removed, and the cells fixed in 1 ml 1% paraformaldehyde for 30 min on ice. […] The cells were incubated with the antibody on ice for 30 min before spinning down, washing twice in 0.05% Tween20, 1% BSA PBS, resuspending in […] and measuring the percentage cells positive for FITC by FACS analysis.
Alternatively, 5×10^4 dendritic cells were mixed with 2×10^11 of individual phage clones as described for panning of the phage library. The mixture of phage and DC suspensions was kept on ice for 30 min before cells were centrifuged to remove the supernatant and washed with 1 ml 1% BSA, 0.05% Tween 20-PBS. The cells were again pelleted by centrifugation, then fixed for flow cytometry analysis by resuspending in 1 ml of 1% paraformaldehyde for 30 min on ice. […] The cells were incubated with the antibody on ice for 30 min then pelleted by centrifugation, washed twice in 0.05% Tween 20, 1% BSA PBS and resuspended in 200 μl PBS. The percentage of FITC-positive cells was determined by flow cytometry using a Epics XL flow cytometer (Beckman Coulter, High Wycombe, UK.).

[3] = tested on: human peripheral blood monocytes; experiment: LID transfection of monocytes, EGFP by FACS and cell death; assay type: cell-based; settings: for Percentages of cells transfected (ranking): FIG. 7a
Procedure: as §1, §2, §3, §4

[4] = tested on: mouse dendritic cells; experiment: Titration of phage clone binding to mouse dendritic cells; settings: 2×10^11 phage
Procedure: The dendritic cells were spun down at 2000 rpm, for 5 min at 4° C., and resuspended in the phage solution, allowing the phage to bind for 1 hour on ice with occasional mixing. The cells were then washed in PBS-Tween 20 (0.05%) three times before eluting phage with 166 μl TBS pH5.5. for 10 min on ice. The eluate was neutralised with […] Tris-HCl pH 8, the cells were spun down, and the supernatant removed to be stored as eluate. The cell pellet was resuspended in 200 μl of cell lysis buffer (30 mM Tris-HCl, 1 mM EDTA pH 8.0) for 1 hour on ice, with shaking. The cell debris was removed by spinning at 5000 rpm for 5 min and the supernatant recovered. The phage in the eluate and the cell lysate were titred by measuring plaque forming units (pfu) in E. coli ER2738 as described in the NEB C7C technical bulletin.
The titration of phage clone binding was carried out using human and mouse dendritic cells, with binding to plastic as a control. The human cells were obtained from donors as stated below.

[5] = lipofectin, lipid:DNA 0.75:1, peptide:DNA 7:1 (FIG. 5a)

In the case of “APSNSTA (Synthetic peptide binding to dendritic cells)”, the “Transfection efficiency, % positive cells” value [1, 5] is reported as 11%, the “Transfection efficiency (percentage cells positive for EGFP) relative to peptide 6” value [1] is reported as “equal to those of peptide 6” and the “Percentage of cells positive for bound phage (FITC) by FACS” value [2] is reported as “binding to a higher percentage of cells than a phage clone bearing no insert; also recorded: bind to dendritic cells in highest amounts; also recorded: binding to dendritic cells in highest amounts”. The “Percentages of cells transfected (ranking)” value [3] was “highest percentages of cells transfected” and the “Phage titre (pfu), mouse DCs” value [4] was 480 pfu ×10^3.

In the case of “SHVKLNS (Synthetic peptide binding to dendritic cells)”, the “Transfection efficiency, % positive cells” value [1, 5] is reported as 17%, the “Transfection efficiency, % positive cells” value ([1]; no lipid) is reported as “less than 1%” and the “Transfection efficiency (percentage cells positive for EGFP) relative to peptide 6” value [1] is reported as “approximately one and a half times that of the positive control, peptide 6”. For the same substance, the “Percentage of cells positive for bound phage (FITC) by FACS” value [2] was “binding to a higher percentage of cells than a phage clone bearing no insert; also recorded: bind to dendritic cells in highest amounts; also recorded: binding to dendritic cells in highest amounts”, the “Percentages of cells transfected (ranking)” value [3] was “highest percentages of cells transfected” and the “Percent positive for EGFP” value ([3]; combined with Lipofectin) was 6%. For the same substance, the “Phage titre (pfu), mouse DCs” value [4] was 2120 pfu ×10^3.
